The series relates to S. typhimurium/E. coli reverse mutation, colony counts. Briefly: Bacterial reverse mutation test (aka Ames test) summary data. In a few lines: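 S. typhimurium his⁻ strains (TA97–TA1538) and E. coli WP2 uvrA pKM101 trp⁻, dosed over a range with or without rat, hamster or mouse liver S9. Preincubated 20 min at 37° C (or plate incorporation), plated in agar, incubated usually two days. Revertant colonies counted against negative controls.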
For orientation: The Ames test uses bacterial strains that need an amino acid and regain growth without it when mutated back.

Each structure is given as a SMILES string. Records with an inconclusive call do not appear. Active and inactive are the calls of the source. No rule for the calls is given here.

Here are results for 106 compounds from PubChem BioAssay AID2202554 (NIEHS Division of Translational Toxicology (DTT)).

`CN(C)C(=O)Nc1ccc(Cl)cc1`: the outcome was “inactive; negative”.
Under `Oc1ccc(/C=C/c2cc(O)cc(O)c2)cc1` stands “inactive; negative”; under `c1ccc(Oc2ccccc2)cc1`, “inactive; negative”; under `Nc1ccccc1-c1ccccc1`, “active; positive”.
The value for `Cc1ccc2cc3c(ccc4ccccc43)c3c2c1CC3` was “active; positive”; that for `CC(=O)C=Cc1ccco1` was “inactive; negative”; that for `Nc1cc(S(=O)(=O)O)ccc1O` was “inactive; negative”.
The value for `BrC(Br)C(Br)Br` was “inactive; negative”; that for `Oc1ccc(Cl)cc1` was “inactive; negative”.
With `ClC(Cl)Br`, the outcome is “inactive; negative”.
Consider `Brc1ccc(Oc2cc(Br)c(Br)cc2Br)c(Br)c1`, for which the outcome is “inactive; negative”.
With `Nc1ccc(N=Nc2ccc(-c3ccc(N=Nc4c(S(=O)(=O)O)cc5cc(S(=O)(=O)O)c(N=Nc6ccccc6)c(O)c5c4N)cc3)cc2)c(N)c1`, the outcome is “active; positive”.
Under `FC(Cl)(Cl)C(F)(Cl)Cl` stands “active; weakly positive”.
Under `[O-][N+](=Nc1ccc(Cl)c(Cl)c1)c1ccc(Cl)c(Cl)c1` stands “inactive; negative”; under `CC(C)(COCC1CO1)COCC1CO1` (stereo unspecified), “active; positive”.
On to `CC(C)COC(=O)COc1cc(Cl)c(Cl)cc1Cl`, for which the outcome was “inactive; negative”.
Regarding `CC1=CC(=O)CC(C)(C)C1`, the outcome is “inactive; negative”.
For the compound `CC(=O)OCc1ccccc1`, the outcome was “inactive; negative”.
The value for `Cc1cccc(N)c1C` was “active; positive”; that for `CCCCC(CC)COC(=O)c1ccccc1C(=O)O` (stereo unspecified) was “inactive; negative”; that for `Nc1ccc(Cl)cc1` was “active; positive”.
Under `O=[N+]([O-])c1cc(Cl)c(Cl)c(Cl)c1` stands “active; positive”; under `Nc1cc([N+](=O)[O-])cc(S(=O)(=O)O)c1O`, “inactive; negative”.
With `Cc1nc2ccc(Cl)cc2[nH]1`, the outcome was “active; positive”.
On to `CCN(CC)C(=O)C(Cl)=C(C)OP(=O)(OC)OC`, for which the outcome is “active; positive”.
The value for `CC(=O)C1(C)CC2=C(CCCC2(C)C)CC1C` (stereo unspecified) was “inactive; negative”; that for `COC(=O)CCC(=O)OC` was “inactive; negative”; that for `O=[N+]([O-])C(Br)=Cc1ccccc1` was “active; positive”.
The value for `CCCCOC(=O)c1ccccc1C(=O)OC1CCCCC1` was “inactive; negative”.
As to `COc1ccccc1[N+](=O)[O-]`, the outcome is “active; positive”.
The value for `O=C(O)C(Cl)(Cl)Br` was “active; positive”; that for `O=C(O)CCCC(=O)O` was “inactive; negative”.
Under `O=P(OCCCl)(OCCCl)OCCCl` stands “inactive; negative”; under `Nc1c(Oc2ccccc2)cc(O)c2c1C(=O)c1ccccc1C2=O`, “active; positive”; under `c1ccc2[nH]cnc2c1`, “inactive; negative”.
The value for `Oc1c(Cl)ccc(Cl)c1Cl` was “inactive; negative”.
In the case of `O=C(Cl)C(Cl)Cl`, the outcome was “active; positive”.
Under `O=C(OCC(COC(=O)c1ccccc1)(COC(=O)c1ccccc1)COC(=O)c1ccccc1)c1ccccc1` stands “inactive; negative”; under `C=C(Cl)Cl`, “inactive; negative”.
The value for `Cc1ccc(Br)cc1` was “inactive; negative”; that for `Nc1cccc(N)c1` was “active; positive”.
The value for `CCCCCCCCOP(=O)(OCCCCCCCC)OCCCCCCCC` was “inactive; negative”; that for `Clc1ccc(Cl)cc1` was “inactive; negative”; that for `C=Cc1ccccn1` was “active; positive”.
`CC(C)CC(=O)CC(C)C`: the outcome is “inactive; negative”.
With `C[C@]12CC[C@@H]3c4ccc(O)cc4CC[C@H]3[C@@H]1CC[C@@H]2O`, the outcome is “inactive; negative”.
Under `CC(=O)c1ccccc1[N+](=O)[O-]` stands “inactive; negative”; under `O=C(OC1CCCCC1)c1ccccc1C(=O)OC1CCCCC1`, “inactive; negative”; under `Oc1ccc([C@H]2COc3cc(O)ccc3C2)cc1`, “inactive; negative”.
Under `C=CCOC(=O)c1ccccc1N` stands “inactive; negative”; under `CC(CO)[N+](=O)[O-]` (stereo unspecified), “inactive; negative”; under `CCCCC1C(=O)N(c2ccccc2)N(c2ccccc2)C1=O`, “inactive; negative”.
Under `NC(=NCCCCCCN=C(N)/N=C(\N)Nc1ccc(Cl)cc1)/N=C(\N)Nc1ccc(Cl)cc1` stands “inactive; negative”.
On to `c1ccc(NNc2ccccc2)cc1`, for which the outcome is “active; positive”.
On to `CC(C)(C)CC(C)(C)c1ccc(OCCOCC[N+](C)(C)Cc2ccccc2)cc1`, for which the outcome was “inactive; negative”.
For `O=CC=O`, the outcome is “active; positive”.
Take `Nc1ccccc1S(=O)(=O)O`: the outcome was “active; weakly positive”.
The value for `CC#N` was “inactive; negative”; that for `COc1ccc(C)cc1N` was “active; positive”.
The value for `CCC1CO1` (stereo unspecified) was “active; positive”.
For `CN(C)CCCN`, the outcome is “inactive; negative”.
As to `CCCCNC(=O)NS(=O)(=O)c1ccc(C)cc1`, the outcome is “inactive; negative”.
Regarding `C=C1C/C(=C/C)C(=O)O[C@@H]2CCN3CC=C(COC(=O)[C@]1(C)O)[C@H]23`, the outcome is “active; positive”.
On to `CC(=O)Nc1ccc(C(=O)O)cc1`, for which the outcome is “inactive; negative”.
The value for `CSC(C)(C)C=NO` was “inactive; negative”; that for `OCCOc1ccccc1` was “inactive; negative”; that for `CN=C=O` was “inactive; negative”.
Under `CC1(C)C(=O)N(Cl)C(=O)N1Cl` stands “inactive; negative”.
Under `COc1cc2c(cc1OC)[C@@]13CCN4CC5=CCO[C@H]6CC(=O)N2[C@H]1[C@H]6[C@H]5C[C@H]43` stands “inactive; negative”; under `CCCCCCCCCCCCCCCCCCCC`, “inactive; negative”; under `Oc1c(Br)c(Br)c(Br)c(Br)c1Br`, “inactive; negative”.
On to `O=C1CCc2ccccc2O1`, for which the outcome was “inactive; negative”.
As for `O=Nc1ccc(Nc2ccccc2)cc1`, the outcome is “active; weakly positive”.
The value for `CCOC(=O)C1=C[C@]2(CC)CCCN3CCc4c(n1c1ccccc41)[C@@H]32` was “inactive; negative”.
The value for `O=C(O)c1cc(O)c2c(c1)[C@H]([C@H]1c3cc(C(=O)O)cc(O)c3C(=O)c3c(O[C@@H]4O[C@H](CO)[C@@H](O)[C@H](O)[C@H]4O)cccc31)c1cccc(O[C@@H]3O[C@H](CO)[C@@H](O)[C@H](O)[C@H]3O)c1C2=O` was “inactive; negative”; that for `CC/C=C\C/C=C\C/C=C\CCCCCCCC(=O)OCC` was “active; weakly positive”.
As to `Clc1ccc(Cl)c(Cl)c1`, the outcome was “inactive; negative”.
Regarding `CC1=CC(=O)CC(C)(C)[C@@]1(O)/C=C/C(C)=C\C(=O)O`, the outcome is “inactive; negative”.
Under `CC(=O)Nc1ccc(C)cc1` stands “active; weakly positive”; under `c1ccc2c(c1)oc1ccccc12`, “inactive; negative”.
Consider `O=C(O)C(F)(F)C(F)(F)C(F)(F)C(F)(F)C(F)(F)C(F)(F)C(F)(F)C(F)(F)F`, for which the outcome was “inactive; negative”.
The value for `C=C(Cl)CSC(=S)N(CC)CC` was “active; positive”; that for `CNC(=O)ON=CC(C)(C)SC` was “inactive; negative”; that for `S=C1NCCN1` was “active; weakly positive”.
On to `CCOP(=S)(OCC)Oc1cc(C)nc(C(C)C)n1`, for which the outcome was “inactive; negative”.
The value for `CC1CC(OC(=O)c2ccccc2O)CC(C)(C)C1` (stereo unspecified) was “inactive; negative”; that for `CC(N)=O` was “inactive; negative”; that for `OCC(Cl)Cl` was “active; weakly positive”.
The value for `O=C1OC(=O)c2c(Cl)c(Cl)c(Cl)c(Cl)c21` was “inactive; negative”; that for `C=C(C)C(=O)OCCCC` was “inactive; negative”.
With `Cc1cc(N=Nc2c(O)ccc3ccccc23)c(S(=O)(=O)O)cc1Cl`, the outcome was “active; weakly positive”.
Under `COc1cc(C=O)ccc1O` stands “inactive; negative”.
Under `N[C@@H](CCC(=O)O)C(=O)O` stands “inactive; negative”.
The value for `Oc1ccc(C(c2ccc(O)cc2)(C(F)(F)F)C(F)(F)F)cc1` was “inactive; negative”; that for `COc1cc(Cl)c(OC)cc1Cl` was “active; positive”.
As for `CCCN(CCC)C(=O)CN`, the outcome was “active; positive”.
Regarding `CC(C)O`, the outcome is “inactive; negative”.
Take `CCC(C(N)=O)(C(N)=O)c1ccccc1`: the outcome was “active; weakly positive”.
Under `COc1cc(-c2ccc(N=Nc3c(S(=O)(=O)O)cc4cc(S(=O)(=O)O)cc(N)c4c3O)c(OC)c2)ccc1N=Nc1c(S(=O)(=O)O)cc2cc(S(=O)(=O)O)cc(N)c2c1O` stands “inactive; negative”; under `O=CNc1nc(-c2ccc([N+](=O)[O-])o2)cs1`, “active; positive”.
The value for `Clc1cc(Cl)c(Cl)cc1Cl` was “inactive; negative”; that for `Nc1ccc(S(=O)(=O)Nc2nccs2)cc1` was “inactive; negative”; that for `CNCCO` was “inactive; negative”.
As for `Cc1cccc(C#N)c1`, the outcome is “inactive; negative”.
For `CC(C)[N+](C)(CCOC(=O)C1c2ccccc2Oc2ccccc21)C(C)C`, the outcome was “inactive; negative”.
Under `C=C(C)C(=O)OC(C)C` stands “inactive; negative”.
